Laboratory results from patent publication US10919941B2, “Functional lipid constructs” (KODE BIOTECH LIMITED, priority 2007, dated 2021).
No end group written: not given here.

Legend:
Design in all cases: key: 0 or ‘−’ no agglutination; 0 or ‘−’ no agglutination; 1+ or 3=very weak agglutination; 1+ or 3=very weak agglutination; 2+ or 5=weak agglutination; 2+ or 5=weak agglutination; 3+ or 8=moderate strong agglutination; 3+ or 8=moderate strong agglutination; 4+ or 10/12=strong agglutination; 4+ or 10/12=strong agglutination; 4+ or 10/12=strong agglutination
[1] = test system: CSL monoclonal anti-A; assay: BioVue serology of RBCs modified with Atri-lipid constructs against anti-A; type: cell-based
Protocol: To test the hypothesis solutions of four different trisaccharide (Atri)-lipid constructs were prepared as 50 μM, 10 μM and 5 μM solutions in Celpresol™. Modified red blood cells were then prepared by contacting 0.6 mls (pcv) of washed RBCs with 0.6 mls of the relevant solution. The mixtures were incubated at 37° C. for 2 hours and then washed 3 times to provide a modified cell suspension.
The modified cell suspensions were prepared in 0.8% in Celpresol LISS™ suitable for BioVue serology cards. A volume of 0.05 mls of CSL monoclonal anti-A (026129801) followed by 0.05 mls of modified cell suspension was applied to each card. Reactions were recorded following centrifugation in a BioVue cassette centrifuge (Table 29).
There was no significant gain with CMG(2) compared with CMG(4). There was a minor, but not significant change for MCMG (2).

[2] = test system: TAP1 serum (Taiwan Miltenberger antibody positive sample); assay: Anti-MUT serum (TAP1) reactivity of modified RBCs (saline and AHG); type: cell-based, human; conditions: construct 50 μg/ml
Protocol: (§1) The suspensions are either: • 1. incubated for 2 hours at 37° C. before being washed and suspended in a cell medium for serological analysis at a concentration of 0.8 to 3% (Method 1); or • 2. incubated for 3 to 4 hours at room temperature (circa 25° C.) followed by 18 hours at 4° C. before being washed and suspended in a cell medium for serological analysis at a concentration of 0.8 to 3% (Method 2).
(§2) Serological reactions are graded or scored by either of two established systems (0 or ‘−’ no agglutination, 1+ or 3=very weak agglutination, 2+ or 5=weak agglutination, 3+ or 8=moderate strong agglutination, 4+ or 10/12=strong agglutination)

[3] = test system: natural Mi III antibody reactive human serums; assay: Positive serum reactivity of modified RBCs in the field; type: cell-based; conditions: 22 at 50, 17 and 24 at 200 μg/ml; 3 h RT then 18 h 4° C.
Protocol: as §1, §2

Adipate
Serological result, anti-A Neat ([1]; construct 5 μM): 8
Serological result, reciprocal of dilution of anti-A 2 ([1]; construct 5 μM): 8
Serological result, reciprocal of dilution of anti-A 4 ([1]; construct 5 μM): 5
Serological result, reciprocal of dilution of anti-A 8 ([1]; construct 5 μM): 3
Serological result, anti-A Neat ([1]; construct 10 μM): 10
Serological result, reciprocal of dilution of anti-A 2 ([1]; construct 10 μM): 10
Serological result, reciprocal of dilution of anti-A 4 ([1]; construct 10 μM): 10
Serological result, reciprocal of dilution of anti-A 8 ([1]; construct 10 μM): 8
Serological result, reciprocal of dilution of anti-A 16 ([1]; construct 10 μM): 8
Serological result, reciprocal of dilution of anti-A 32 ([1]; construct 10 μM): 8
Serological result, reciprocal of dilution of anti-A 64 ([1]; construct 10 μM): 8
Serological result, reciprocal of dilution of anti-A 128 ([1]; construct 10 μM): 3
Serological result, anti-A Neat ([1]; construct 50 μM): 12
Serological result, reciprocal of dilution of anti-A 2 ([1]; construct 50 μM): 12
Serological result, reciprocal of dilution of anti-A 4 ([1]; construct 50 μM): 12
Serological result, reciprocal of dilution of anti-A 8 ([1]; construct 50 μM): 12
Serological result, reciprocal of dilution of anti-A 16 ([1]; construct 50 μM): 12
Serological result, reciprocal of dilution of anti-A 32 ([1]; construct 50 μM): 12
Serological result, reciprocal of dilution of anti-A 64 ([1]; construct 50 μM): 10
Serological result, reciprocal of dilution of anti-A 128 ([1]; construct 50 μM): 8
Serological result, reciprocal of dilution of anti-A 256 ([1]; construct 50 μM): 8
Serological result, reciprocal of dilution of anti-A 512 ([1]; construct 50 μM): 3

M24: DOPE peptide-lipid construct: Hil peptide EETGETGQLV, leader c, spacer CMG(2) (EETGETGQLVC; also: DOPE peptide-lipid construct via leader Cys, spacer CMG(2))
TAP 1 Serum, AHG score [2]: 0
TAP 1 Serum, Saline score [2]: 0
score vs Mi III reactive serum 912485657-9 [3]: 0
score vs Mi III reactive serum 914146821-8 [3]: 0
score vs Mi III reactive serum 922390844-5 [3]: 0
score vs Mi III reactive serum 926190919-0 [3]: 0
score vs Mi III reactive serum 926555294-1 [3]: 0
score vs Mi III reactive serum 927175131-4 [3]: 0
score vs Mi III reactive serum 927299700-1 [3]: 0
score vs Mi III reactive serum 927516053-2 [3]: 0
score vs Mi III reactive serum 927619701-8 [3]: 0
score vs Mi III reactive serum 932360876-4 [3]: 0
score vs Mi III reactive serum 932467774-5 [3]: 0
score vs Mi III reactive serum 932809044-1 [3]: 0
score vs Mi III reactive serum 942223755-1 [3]: 0
score vs Mi III reactive serum 942404708-4 (row interpreted Mur) [3]: 0
score vs Mi III reactive serum 942404708-4 (row interpreted other) [3]: 0
score vs Mi III reactive serum 942421413-0 [3]: 0
score vs Mi III reactive serum 942423002-4 [3]: 3
score vs Mi III reactive serum 942433813-3 [3]: 0
score vs Mi III reactive serum 942433855-3 [3]: 8
score vs Mi III reactive serum 942442720-2 [3]: 0
score vs Mi III reactive serum 942448627-8 [3]: 5
score vs Mi III reactive serum 942753165-4 [3]: 8
score vs Mi III reactive serum 942762589-1 [3]: 3
score vs Mi III reactive serum 9322338631 [3]: 0
score vs Mi III reactive serum 9325490091 [3]: 0
score vs Mi III reactive serum 9327986660 [3]: 0
score vs Mi III reactive serum 9328118428 [3]: 5
score vs Mi III reactive serum 9328154853 [3]: 3
score vs Mi III reactive serum 9328791834 [3]: 0
score vs Mi III reactive serum 9424248012 [3]: 0
score vs Mi III reactive serum 9424292604 [3]: 5
score vs Mi III reactive serum 9424396133 [3]: 0
score vs Mi III reactive serum 9425256505 [3]: 8
score vs Mi III reactive serum 9427455417 [3]: 5
score vs Mi III reactive serum 9427613497 [3]: 0
score vs Mi III reactive serum 9427615156 [3]: 0
score vs Mi III reactive serum S-3 [3]: 5
